# Reference: PubChem BioAssay AID330 (DTP/NCI, 2004)
# Several values for one entry are separate records, joined by “and”; a condition that tells them apart may be missing. Identical values can stand only once. Inconclusive results and toxic doses are left out.
# Test system: P388 leukemia ip, CD2F1 mice, survival T/C
# Assay: NCI In Vivo Anticancer Drug Screen. Data for tumor model P388 Leukemia (intraperitoneal) in CD2F1 (CDF1) mice
# Conditions: endpoint: median survival time, higher = longer survival
# How it was run: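 Mice carrying the transplanted tumor received test compound or vehicle. Survival was recorded in each group, and the value is the treated-group measurement divided by that of the vehicle-treated control group.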
# [1] = dose: 50.0 mg/kg/injection, schedule: Q01DX005 (ip), vehicle: saline with Tween-80
# [2] = dose: 100.0 mg/kg/injection, schedule: Q01DX005 (ip), vehicle: saline with Tween-80
# [3] = dose: 200.0 mg/kg/injection, schedule: Q01DX005 (ip), vehicle: saline with Tween-80
compound,measurement,setting,value
CS(=O)(=O)OCCCCOS(C)(=O)=O,T/C,"dose: 3.75 mg/kg/injection, schedule: Q01DX009 (ip), vehicle: saline with Tween-80",90 % of control
same,T/C,"dose: 3.75 mg/kg/injection, schedule: Q03HX008 (ip), vehicle: saline with Tween-80",104 % of control
same,T/C,"dose: 3.75 mg/kg/injection, schedule: Q03HX016 (ip), vehicle: saline with Tween-80",100 % of control
same,T/C,"dose: 3.75 mg/kg/injection, schedule: Q03HX024 (ip), vehicle: saline with Tween-80",100 % of control
same,T/C,"dose: 7.5 mg/kg/injection, schedule: Q03HX008 (ip), vehicle: saline with Tween-80",109 % of control
same,T/C,"dose: 7.5 mg/kg/injection, schedule: Q03HX016 (ip), vehicle: saline with Tween-80",100 % of control
same,T/C,"dose: 7.5 mg/kg/injection, schedule: Q03HX024 (ip), vehicle: saline with Tween-80",100 % of control
same,T/C,"dose: 15.0 mg/kg/injection, schedule: Q01DX009 (ip), vehicle: saline with Tween-80",90 % of control
same,T/C,"dose: 15.0 mg/kg/injection, schedule: Q01DX009 (oral), vehicle: saline with Tween-80",104 % of control
same,T/C,"dose: 15.0 mg/kg/injection, schedule: Q03HX008 (ip), vehicle: saline with Tween-80",109 % of control
same,T/C,"dose: 15.0 mg/kg/injection, schedule: Q03HX016 (ip), vehicle: saline with Tween-80",109 % of control
same,T/C,"dose: 15.0 mg/kg/injection, schedule: Q03HX024 (ip), vehicle: saline with Tween-80",113 % of control
same,T/C,"dose: 25.0 mg/kg/injection, schedule: Q01DX005 (ip), vehicle: saline with Tween-80",108 % of control
same,T/C,"dose: 30.0 mg/kg/injection, schedule: Q01DX001 (ip), vehicle: saline with Tween-80",110 % of control
same,T/C,"dose: 30.0 mg/kg/injection, schedule: Q01DX009 (ip), vehicle: saline with Tween-80",100 % of control
same,T/C,"dose: 30.0 mg/kg/injection, schedule: Q01DX009 (oral), vehicle: saline with Tween-80",104 % of control
same,T/C,"dose: 30.0 mg/kg/injection, schedule: Q03HX008 (ip), vehicle: saline with Tween-80",109 % of control
same,T/C,"dose: 30.0 mg/kg/injection, schedule: Q03HX016 (ip), vehicle: saline with Tween-80",100 % of control
same,T/C,"dose: 30.0 mg/kg/injection, schedule: Q04DX003 (ip), vehicle: saline with Tween-80",90 % of control
same,T/C,"dose: 30.0 mg/kg/injection, schedule: Q08DX002 (ip), vehicle: saline with Tween-80",105 % of control
same,T/C,[1],113 % of control and 93 % of control
same,T/C,"dose: 60.0 mg/kg/injection, schedule: Q01DX001 (ip), vehicle: saline with Tween-80",110 % of control
same,T/C,"dose: 60.0 mg/kg/injection, schedule: Q01DX001 (oral), vehicle: saline with Tween-80",100 % of control
same,T/C,"dose: 60.0 mg/kg/injection, schedule: Q08DX002 (ip), vehicle: saline with Tween-80",100 % of control
same,T/C,"dose: 240.0 mg/kg/injection, schedule: Q08DX002 (ip), vehicle: saline with Tween-80",100 % of control
OC1(c2cc3ccccc3c3ccccc23)c2ccccc2-c2ccccc21,T/C,[1],98 % of control
same,T/C,[2],100 % of control
same,T/C,[3],100 % of control
CCN(CC)CCCOC(=O)N(Cc1ccc(Cl)cc1)C1CC1,T/C,"dose: 25.0 mg/kg/injection, schedule: Q01DX009 (ip), vehicle: saline + Tween-80 + alcohol",108 % of control
same,T/C,"dose: 50.0 mg/kg/injection, schedule: Q01DX009 (ip), vehicle: saline + Tween-80 + alcohol",108 % of control
same,T/C,"dose: 100.0 mg/kg/injection, schedule: Q01DX009 (ip), vehicle: saline + Tween-80 + alcohol",110 % of control
O=C(NNc1ccccc1)c1ccccc1Cl,T/C,"dose: 25.0 mg/kg/injection, schedule: Q01DX009 (ip), vehicle: saline",101 % of control
same,T/C,"dose: 50.0 mg/kg/injection, schedule: Q01DX009 (ip), vehicle: saline",105 % of control
same,T/C,"dose: 100.0 mg/kg/injection, schedule: Q01DX009 (ip), vehicle: saline",97 % of control
same,T/C,"dose: 200.0 mg/kg/injection, schedule: Q01DX009 (ip), vehicle: saline",98 % of control
Cc1ccc(C[n+]2cc3ccccc3cc2/C=N\O)cc1,T/C,[1],98 % of control
same,T/C,[2],109 % of control
COC(=O)C(CC(C)C)NC(=O)C(Cc1cnc[nH]1)NC(=O)C(CS)N(C(=O)OCc1ccccc1)C(=O)OCc1ccccc1 (stereo unspecified),T/C,[1],99 % of control
same,T/C,[2],98 % of control
same,T/C,[3],100 % of control
Cc1ccoc1OP(=O)(N(C)C)N(C)C,T/C,"dose: 15.0 mg/kg/injection, schedule: Q01DX005 (ip), vehicle: saline",102 % of control
same,T/C,"dose: 30.0 mg/kg/injection, schedule: Q01DX005 (ip), vehicle: saline",100 % of control
same,T/C,"dose: 60.0 mg/kg/injection, schedule: Q01DX005 (ip), vehicle: saline",108 % of control
CCOP(=S)(OCC)Oc1ccccc1,T/C,"dose: 100.0 mg/kg/injection, schedule: Q04DX002 (ip), vehicle: saline",104 % of control
same,T/C,"dose: 200.0 mg/kg/injection, schedule: Q04DX002 (ip), vehicle: saline",113 % of control
same,T/C,"dose: 400.0 mg/kg/injection, schedule: Q04DX002 (ip), vehicle: saline",115 % of control
Cc1cc(N)c(C)c2ccncc12,T/C,"dose: 0.63 mg/kg/injection, schedule: Q01DX009 (ip), vehicle: saline with Tween-80",100 % of control
same,T/C,"dose: 1.25 mg/kg/injection, schedule: Q01DX009 (ip), vehicle: saline with Tween-80",90 % of control
same,T/C,"dose: 2.5 mg/kg/injection, schedule: Q04DX003 (ip), vehicle: saline with Tween-80",104 % of control
C1=CN2CC(c3ccccc3)N=C2S1 (stereo unspecified),T/C,"dose: 12.5 mg/kg/injection, schedule: Q01DX009 (ip), vehicle: other",99 % of control
same,T/C,"dose: 25.0 mg/kg/injection, schedule: Q01DX009 (ip), vehicle: other",102 % of control
CC/C(=C(\CC)c1ccc(OCCN(C)C)cc1)c1ccc(OCCN(C)C)cc1,T/C,"dose: 6.25 mg/kg/injection, schedule: Q01DX005 (ip), vehicle: saline",104 % of control
same,T/C,"dose: 12.5 mg/kg/injection, schedule: Q01DX005 (ip), vehicle: saline",98 % of control
Cc1ccc(S(=O)(=O)OC2C(OCc3ccccc3)OCC(O)C2O)cc1 (stereo unspecified),T/C,[1],102 % of control
same,T/C,[2],100 % of control
same,T/C,[3],100 % of control
C[C@@H](O)c1nc(C(N)=O)cs1,T/C,"dose: 60.0 mg/kg/injection, schedule: Q01DX005 (ip), vehicle: saline with Tween-80",104 % of control
same,T/C,"dose: 120.0 mg/kg/injection, schedule: Q01DX005 (ip), vehicle: saline with Tween-80",109 % of control
same,T/C,"dose: 240.0 mg/kg/injection, schedule: Q01DX005 (ip), vehicle: saline with Tween-80",106 % of control
COC(=O)C1c2c(C)cc3n2C(C(C)=CC3)C1C(=O)OC (stereo unspecified),T/C,"dose: 100.0 mg/kg/injection, schedule: Q04DX003 (ip), vehicle: Klucel (hydroxypropylcellulose) (HPC)",99 % of control
same,T/C,"dose: 200.0 mg/kg/injection, schedule: Q04DX003 (ip), vehicle: Klucel (hydroxypropylcellulose) (HPC)",96 % of control
same,T/C,"dose: 400.0 mg/kg/injection, schedule: Q04DX003 (ip), vehicle: Klucel (hydroxypropylcellulose) (HPC)",99 % of control
CC(C)NC(=O)c1ccc(C/[N+]([O-])=C/c2ccccc2)cc1,T/C,"dose: 50.0 mg/kg/injection, schedule: Q01DX009 (ip), vehicle: distilled water + Tween-80",95 % of control
same,T/C,"dose: 50.0 mg/kg/injection, schedule: Q01DX009 (ip), vehicle: other",121 % of control
same,T/C,"dose: 100.0 mg/kg/injection, schedule: Q01DX009 (ip), vehicle: distilled water + Tween-80",92 % of control and 95 % of control
same,T/C,"dose: 100.0 mg/kg/injection, schedule: Q01DX009 (ip), vehicle: other",103 % of control
same,T/C,"dose: 200.0 mg/kg/injection, schedule: Q01DX009 (ip), vehicle: distilled water + Tween-80",89 % of control and 92 % of control
same,T/C,"dose: 200.0 mg/kg/injection, schedule: Q01DX009 (ip), vehicle: other",116 % of control
same,T/C,"dose: 400.0 mg/kg/injection, schedule: Q01DX009 (ip), vehicle: distilled water + Tween-80",92 % of control
same,T/C,"dose: 800.0 mg/kg/injection, schedule: Q01DX009 (ip), vehicle: other",153 % of control
O=S1(=O)Cc2c3c(c4c(c2C1)CS(=O)(=O)C4)CS(=O)(=O)C3,T/C,"dose: 50.0 mg/kg/injection, schedule: Q04DX002 (ip), vehicle: Klucel (hydroxypropylcellulose) (HPC)",94 % of control
same,T/C,"dose: 100.0 mg/kg/injection, schedule: Q04DX002 (ip), vehicle: Klucel (hydroxypropylcellulose) (HPC)",96 % of control
same,T/C,"dose: 200.0 mg/kg/injection, schedule: Q04DX002 (ip), vehicle: Klucel (hydroxypropylcellulose) (HPC)",98 % of control
N#Cc1cc2ccccc2nc1SN,T/C,"dose: 50.0 mg/kg/injection, schedule: Q01DX005 (ip), vehicle: saline",100 % of control
same,T/C,"dose: 100.0 mg/kg/injection, schedule: Q01DX005 (ip), vehicle: saline",99 % of control
same,T/C,"dose: 200.0 mg/kg/injection, schedule: Q01DX005 (ip), vehicle: saline",98 % of control
CN(C)S(=O)(=O)c1ccccc1N=C=S,T/C,"dose: 50.0 mg/kg/injection, schedule: Q01DX009 (ip), vehicle: saline with Tween-80",117 % of control
same,T/C,"dose: 100.0 mg/kg/injection, schedule: Q01DX009 (ip), vehicle: saline with Tween-80",117 % of control
C=Cc1ccccc1NC(C(=O)O)c1ccccc1 (stereo unspecified),T/C,[1],107 % of control
same,T/C,[2],106 % of control
same,T/C,[3],104 % of control
